This is an account of results in patent publication US10073097B2, “Diagnostic assays and methods of treating pneumonia, sepsis and systemic inflammatory response syndrome” (priority 2012, dated 2018).

Entries after “also recorded” stand apart in the source; their conditions may differ. Residues, ends and D or L forms follow the SMILES beside them. *: point of attachment. Cbz = O=C(OCc1ccccc1)*; CH2F = FC*

The test system of test [1] is peritoneal cells. Briefly: NDMP generation by peritoneal cells collected 24 H after TGA treatment, cultured with agonists or inhibitors. Format: cell-based, mice. The conditions noted are these: peritoneal cells 24 H after 3% TGA; for NDMP numbers compared to cells cultured without agent: 8-Br-cAMP 100 μM, H89 20 μM, 6-Bnz-cAMP 100 μM, 8-CPT-2Me-cAMP 100 μM, Y27632 30 μM, PGE2 1 μM, 24 H; for decrease in NDMP generation when compared to cells cultured without inhibitor: ML7 250 μM, Z-VAD-FMK 200 μM, Z-IETD-FMK 30 μM, flow cytometry. As for the experimental part:
Experimental Protocol. A biochemical pathway for NDMP formation was investigated. Specifically, proteins associated with F-actin were investigated, as F-actin rearrangement is a terminal step in apoptosis. The role of myosin light chain kinase (hereinafter “MLC K”) in NDMP generation was initially investigated. Peritoneal cells were isolated from peritoneal lavage 24 H after 1 mL 3% TGA injection. Peritoneal cells were cultured with one of the following agonists or inhibitors overnight in a CO2 incubator: 250 μM ML7, a MLCK inhibitor, (Tocris, Bristol, UK), 200 μM Z-VAD-FMK, a caspase 3 inhibitor, (Tocris), 30 μM Z-IETD-FMK, a caspase 8 inhibitor, (Tocris), or 30 μM Z-LEHD-FMK, or a caspase 9 inhibitor, (Tocris). Cells and MPs were collected 24 H following incubation and analyzed using flow cytometry as previously described.
Statistical comparisons were performed using Student t Test (two groups), or one-way ANOVA with Holm-Sidak post-hoc test (more than two groups) using StatView 3.5 (SAS Institute, Cary, N.C.). The mean and standard error of the mean were calculated in experiments containing multiple data points. A value of p≤0.05 was considered statistically significant.
Experimental Protocol. Elucidation of potential signaling pathways involved in NDMP formation was studied. Peritoneal cells were isolated from peritoneal lavage 24 H after 1 mL 3% TGA injection. […] Cells and MPs were collected 24 H following incubation and analyzed using flow cytometry as previously described.
(In general: A flow cytometer gives signals particle by particle.)

Test [2] has as its system Mouse neutrophils. Put plainly: NDMP generation by mouse bone marrow neutrophils treated with TNF-α with or without inhibitors. Format: cell-based. The conditions noted are these: for NDMPs after TNF-α plus caspase 8 inhibitor vs TNF-α alone: WT neutrophils, 25 ng/mL rhTNF-α (TNFr1) or rmTNF-α (TNFr1 and TNFr2). The text has this: Materials and Methods. Male C57BL/6 and TNFr1 KO (stock number: 003242) mice between 6 and 8 weeks of age were obtained from Jackson Labs (Bar Harbor, Me.). Mouse and human TNF-α Recombinant Protein (rmTNF-α and rhTNF-α, respectively) were purchased from Preprotech (Rocky Hill, N.J.). NF-κB inhibitor (BAY 11-7085) and Caspase 8 inhibitor (Z-IETD-FMK) were purchased from R&D systems (Minneapolis, Minn.). The pharmacological agents were solubilized in DMSO (American Bioanalytical, Natick, Mass.). The amount of DMSO was consistent in all samples groups. Neutrophil isolation. Mouse neutrophils from bone marrow were isolated from C57B1/6 mice as previously described. The femurs and tibias were flushed with Hanks' Balanced Salt Solution without calcium & Magnesium (HBSS) (Mediatech, Inc. Manassas, Va., USA). Bone marrow particulate was disaggregated and filtered in a 70 micron filter, then centrifuged at 400×g for 10 min at 23° C. The cells in the pellet were resuspended in HBSS, placed on a 55% Percoll gradient, and centrigued at 100×g for 30 min at 23° C. The pellet was washed once more. The final neutrophil preparation was re-suspended in HBSS. The purity and viability of the neutrophils (90% purity >99% viability, respectively) was determined by flow cytometry. Neutrophil purity was assessed by flow cytometry after cell staining with fluorescently conjugated antibodies to Ly-6G, CD19, CD3 and F4/80 with >99% of the cells negative for F4/80 and CD3. The main cell contaminant in this preparation was due to B cells. Further purification was not conducted by centriguation due to risk of non-specific neutrophil activation or by magnetic beads due to microparticle-sized contaminants introduced by the beads themselves.
Microparticle Generation and Analysis. Isolated neutrophils from bone marrow preparation were plated and cultured for the indicated time at 37° C. with stated treatments. The cell/micropartocle mixture was labeled for Ly-6G and Annexin V without manipulation as previously described. […] Neutrophil derived microparticle numbers were assessed using the neutrophil specific marker, Ly-6G (Clone: 1A8, BD Pharmingen, San Diego, Calif., United States); and Annexin V (BD Pharmingen). […]
Statistical Analysis. […] The mean and standard error of the mean were calculated in experiments containing multiple data points. […]
Using flow cytometry, forward- and side-channels were set to analyze particles using 0.5-, 0.9-, and 3.0-μm latex beads for calibration as previously described (FIG. 22A). […] To enumerate NDMPs, neutrophil and NDMP mixture were analyzed with the neutrophil-specific marker, Ly6G, and the apoptosis marker, annexin V. Vesicles within the 0.3-1.0 μm range that expressed both Ly6G and phosphatidylserine were identified as NDMPs. […]

Test [3] relates to C57BL/6 mice. Briefly: Intraperitoneal treatment of mice with TGA, LPS or PepG: peritoneal neutrophil recruitment and NDMP generation. To be noted: for neutrophil recruitment and NDMP generation/accumulation in the peritoneum: i.p. injection, peritoneal lavage 24 H after 3% TGA; for # NDMPs: peritoneal NDMPs after treatment; for # NDMPs / # Neuts: 3% TGA 1 mL i.p., PepG 1 mg i.p., LPS 100 μg i.p., CLP 75% ligation/23 gauge puncture; for # Neuts: peritoneal neutrophils after treatment. The format is in vivo. The procedure:
Low-endotoxin NDMPs were generated and used to assess host response during sepsis. More specifically, mice were treated with intraperitoneal injections of 3% thioglycolate (hereinafter, “TGA”), LPS, or petidylglycan (hereinafter “PepG”). Peritoneal neutrophil recruitment, NDMPs, and endotoxin associated with NDMPs were quantified.
Experimental Protocol. The ability of TGA to generate microparticles in vivo was investigated. Male C57BL/6 mice between 6 and 8 weeks of age (about 20 to 28 g) were injected in the peritoneum with 1 mL 3% thioglycolate (Sigma, St. Louis, Mo.) or with vehicle. Peritoneal lavage was performed 24 H after injection. Peritoneal cells were pelleted after a 10-minute 450×g centrifugation. The supernatant was then centrifuged for 10 minutes at 9,900×g to remove platelets. The platelet-free supernatant was centrifuged for 20 minutes at 16,000×g in order to pellet MPs. The MP pellet was resuspended in 500 μL sterile PBS and centrifuged for 20 minutes at 16,000×g. The MP pellet was then resuspended in 100 μL sterile PBS for analysis.
Analysis of cell surface antigen expression was performed on peritoneal lavage fluid. Flow cytometry data acquisition and analysis were performed on an LSR II using FACS Diva software (BD Biosciences). Antibodies used included: Ly-6G (Clone: 1A8, BioLegend), LY-6C (Clone: AL-21, BD Biosciences), CD11b (Clone: M1/70, BioLegend), Ter-119 (Clone: Ter-119, BioLegend), CD41 (Clone: MWReg30, BioLegend), CD105 (Clone: MJ7/18, BioLegend), Annexin V (BioLegend), and counting beads (Invitrogen, Grand Island, N.Y.). As shown in FIG. 19(A), forward and side scatter flow cytometry were initially performed on the lavage to both characterize and enumerate microparticles. A gate was created using 0.3-1.1 μm beads to isolate the MPs in the sample.
Vehicle mice and TGA-treated mice were stained with neutrophil specific Ly6G and annexinV antibodies. Total NDMPs from TGA-treated mice and vehicle mice were then enumerated.

Test [4] relates to peritoneal cells isolated from septic mice. Briefly: In vitro NDMP generation by peritoneal cells isolated from septic (CLP) mice. Format: cell-based. The procedure:
Experimental Protocol. Peritoneal lavage cells from mice made septic by cecal ligation and puncture were isolated. The cells were then incubated with or without lipopolysaccharide (hereinafter “LPS”, 100 ng/mL) for […]. MPs from these cultures were then isolated, quantified by bicinchoninic acid assay (hereinafter, “BCA”), and analyzed by fluorescence-activated cell sorting (hereinafter “FACS”).
Experimental Protocol. Peritoneal cells were isolated from septic mice 24 H after CLP. The isolated peritoneal cells were incubated with PBS or 100 ng/mL LPS for 24 H. Samples were analyzed using LSR II flow cytometer and FACS Diva software (BD Biosciences). As shown in FIG. 17(A), latex beads of a predetermined size were used to set the forward and side scatter voltages to best distinguish particles ranging from […].
Experimental Protocol. Signaling intermediates required for NDMP formation are largely unexplored. cAMP was targeted as a potential signaling mechanism involved in NDMP formation. Peritoneal cells were isolated 24 H after CLP surgeries. […] After 24 H, NDMPs were enumerated and characterized by flow cytometry.

`O=C(Nc1ncnc2c1ncn2[C@@H]1O[C@@H]2COP(=O)(O)OC2C1O)c1ccccc1` (stereo in doubt) [6-Bnz-cAMP]: the “NDMP numbers compared to cells cultured without agent” value in test [1] is on record as “inhibited NDMP formation”.

On to `CC(C)(C)c1ccc(S(=O)(=O)/C=C/C#N)cc1` [BAY 11-7085], for which the “NDMP generation after activation of TNFr1, TNFr2 or both” value in test [2] (WT or TNFr1−/− neutrophils, 25 ng/mL rmTNF-α or rhTNF-α, 20 μM BAY 11-7085, 1 h) is listed as “completely abrogates NDMP generation”. For `CO[C@@H]1[C@@H]2OP(=O)(O)OC[C@H]2O[C@H]1n1c(Sc2ccc(Cl)cc2)nc2c(N)ncnc21` [EPAC, 8-CPT-2Me-cAMP], in test [1], the “NDMP numbers compared to cells cultured without agent” value is listed as “did not affect NDMP numbers”. On to `Cl.Cl.O=S(=O)(NCCNC/C=C/c1ccc(Br)cc1)c1cccc2cnccc12` [H89], for which the “NDMP numbers compared to cells cultured without agent” value in test [1] is “did not”. Regarding `Cl.O=S(=O)(c1cccc2c(I)cccc12)N1CCCNCC1` [ML7], the “decrease in NDMP generation when compared to cells cultured without inhibitor” value (“decrease … to cells cultured without inhibitor” below) in test [1] (24 H culture) came out at 75%.

In the case of `CCCCC[C@H](O)/C=C/[C@H]1[C@H](O)CC(=O)[C@@H]1C/C=C\CCCC(=O)O` [PGE2, Prostaglandin E2], in test [1], the “NDMP numbers compared to cells cultured without agent” value is “decrease in the total number of NDMPs”. As for `C[C@@H](N)[C@H]1CC[C@H](C(=O)Nc2ccncc2)CC1` [Y27632], the “NDMP numbers compared to cells cultured without agent” value in test [1] is reported as “decrease in the total number of NDMPs”. `CC[C@H](C)[C@H](NC(=O)OCc1ccccc1)C(=O)N[C@@H](CCC(=O)OC)C(=O)N[C@H](C(=O)N[C@@H](CC(=O)OC)C(=O)CF)[C@@H](C)O` [Z-IETD-FMK] (Cbz-IE(OMe)TD(OMe)-CH2F): in test [1] (24 H culture), the “decrease … to cells cultured without inhibitor” value is on record as 37%. For the same compound, the “NDMPs after TNF-α plus caspase 8 inhibitor vs TNF-α alone” value in test [2] (30 μM Z-IETD-FMK, 1 h, listed as Caspase 8 inhibitor) is listed as “sharply decreased but not entirely eliminated”; in test [2] (30 μM Z-IETD-FMK, 1 h, listed as caspase 8 inhibitor), “significant decrease in NDMPs”. Moreover, in test [2] (neutrophils from TNFr1−/− mice, 25 ng/mL rmTNF-α, 30 μM Z-IETD-FMK, 1 h, listed as Caspase 8 inhibitor), the “microparticle generation after TNF-α plus caspase 8 inhibitor, only TNFr2 activated” value is on record as “did not alter NDMP numbers; also recorded: no decrease in microparticle generation”.

With `COC(=O)CC[C@H](NC(=O)[C@H](CC(C)C)NC(=O)OCc1ccccc1)C(=O)N[C@@H](Cc1cnc[nH]1)C(=O)N[C@@H](CC(=O)OC)C(=O)CF` [Z-LEHD-FMK] (Cbz-LE(OMe)HD(OMe)-CH2F), in test [1] (Z-LEHD-FMK 30 μM, 24 H culture), the “NDMP generation compared to cells cultured without inhibitor” value is recorded as “no significant difference”. Turning to `COC(=O)C[C@H](NC(=O)[C@H](C)NC(=O)[C@@H](NC(=O)OCc1ccccc1)C(C)C)C(=O)CF` [Z-VAD-FMK] (Cbz-Val-Ala-Asp(OMe)-CH2F), in test [1] (24 H culture), the “decrease … to cells cultured without inhibitor” value stood at 37%. For lipopolysaccharide [LPS], in test [3], the “neutrophil recruitment and NDMP generation/accumulation in the peritoneum” value was “resulted in neutrophil recruitment and NDMP generation”; the “# NDMPs” value is reported as 2.4 ×10^3; the “# Neuts” value is given as 0.16 ×10^6. The “NDMP formation from peritoneal cells” value in test [4] (LPS 100 ng/mL vs PBS, 24 H, cells isolated 24 H after CLP) is given as “enhance NDMP formation”. The “increase in NDMPs from LPS-treated cells compared to spontaneous NDMP generation” value in test [4] (LPS 100 ng/mL, 18 H, peritoneal lavage cells of CLP mice) is recorded as about 60%. As for peptidoglycan [PepG], in test [3], the “neutrophil recruitment and NDMP generation/accumulation in the peritoneum” value is “resulted in neutrophil recruitment and NDMP generation”; the “# NDMPs” value was 3.0 ×10^3; the “# Neuts” value was 2.0 ×10^6. Regarding thioglycolate [3% TGA], in test [3], the “neutrophil recruitment and NDMP generation/accumulation in the peritoneum” value is listed as “greatest number of low endotoxin NDMPs”; the “# NDMPs” value is 35.1 ×10^3; the “# Neuts” value is given as 6.9 ×10^6. Further, in test [3] (listed as TGA), the “neutrophil recruitment and NDMP generation/accumulation in the peritoneum” value is “resulted in neutrophil recruitment and NDMP generation; also recorded: robust accumulation of NDMPs”.
